Here are results for 7 compounds from ChEMBL document CHEMBL1147723, “Novel chromene-derived selective estrogen receptor modulators useful for alleviating hot flushes and vaginal dryness” (J Med Chem, 2006).

The species entered for data set [1] is Rattus norvegicus. Description: Reduction in serum cholesterol level in ovariectomized rat. It is filed as functional. Further details: scale not given: the % may be the effect or the level left.
For data set [2], the species on record is Rattus norvegicus. Description: Inhibition of bone loss in ovariectomized rat. It counts as functional, organism-based.
Data set [3] concerns Rattus norvegicus. Description: (§1) Increase in vaginal fluid in ovariectomized rat at […], po. It counts as functional, organism-based. Further details: dose 0.14 mg/kg.
Data set [4] addresses T1, Estrogen receptor (Homo sapiens, UniProt Q92731+P03372). Particulars: mcf7.
Description: Inhibition of estrogen receptor in MCF7 cells
Data set [5] has as its target T2, Estrogen receptor (Homo sapiens, UniProt P03372).
T2 sequence (P03372 whole entry): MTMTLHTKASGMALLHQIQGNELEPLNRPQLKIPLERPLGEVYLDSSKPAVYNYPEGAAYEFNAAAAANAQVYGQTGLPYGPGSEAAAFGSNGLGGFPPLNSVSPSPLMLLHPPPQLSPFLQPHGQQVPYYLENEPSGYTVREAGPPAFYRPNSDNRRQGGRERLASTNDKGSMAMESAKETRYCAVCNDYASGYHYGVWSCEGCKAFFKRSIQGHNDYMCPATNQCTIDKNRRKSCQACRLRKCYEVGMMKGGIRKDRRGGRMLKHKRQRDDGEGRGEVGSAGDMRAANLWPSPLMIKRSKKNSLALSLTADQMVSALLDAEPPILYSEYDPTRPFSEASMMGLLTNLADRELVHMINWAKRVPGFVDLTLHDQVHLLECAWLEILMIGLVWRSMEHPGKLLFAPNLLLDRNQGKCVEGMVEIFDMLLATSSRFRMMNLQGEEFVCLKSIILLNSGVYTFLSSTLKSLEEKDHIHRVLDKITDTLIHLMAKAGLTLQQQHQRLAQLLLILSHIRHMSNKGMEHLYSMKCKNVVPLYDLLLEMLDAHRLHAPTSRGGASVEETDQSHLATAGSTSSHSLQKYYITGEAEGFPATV
Description: Binding affinity to ERalpha

The subject of data set [6] is Rattus norvegicus. Description: Ability to suppress increase of tail skin temperature in morphine-dependent rat at […].day, po. It counts as functional, organism-based. The arrangement: dose 1.4 mg/kg.
Data set [7] concerns Rattus norvegicus. Description: Ability to block estrone-induced increase in uterine wet weight in immature rat at 0.42 mg/kg/day, po after 3 days by uterotropic assay. It counts as functional. Particulars: 72 h.
Data set [8] relates to Rattus norvegicus. Description: (§2) Ability to block estrone-induced increase in uterine wet weight in immature rat at […], po after 3 days by uterotropic assay. It counts as functional. Conditions: 72 h.
Data set [9] concerns Rattus norvegicus. The data set is described as §1. The arrangement: dose 1.4 mg/kg. It is filed as functional, organism-based.
Another data set concerns the target Estrogen receptor beta (Homo sapiens, UniProt Q92731).
The target of data set [10] is T1, Estrogen receptor. Particulars: ishikawa.
Description: Inhibition of estrogen receptor in Ishikawa cells
In data set [11] the test system is Rattus norvegicus. The data set is described as §2. It counts as functional. Particulars: 72 h. The source holds these as a separate data set.
The nature of data set [12]: Bioavailability in rat plasma. It is filed as ADME, organism-based.
In data set [13] the target is T1, Estrogen receptor. Description: Agonist activity at estrogen receptor in MCF7 cells. It is filed as functional, cell-based.
Data set [14] is filed under the species Rattus norvegicus. Description: Ability to suppress increase of tail skin temperature in morphine-dependent rat. It counts as functional, organism-based.

The term IC50 denotes the concentration that gives 50% inhibition. A word on the inhibition in vivo: it is the change of the read-out against control, counted positive when it falls. By bioavailability is commonly meant dose-corrected exposure relative to a reference, in per cent. The term EC50 denotes the concentration at which the effect is half-maximal.

Activity calls are given as the source filed them. The calls are words filed in the database; no cut-off is given here.

Sequence of Estrogen receptor beta (Q92731 whole entry): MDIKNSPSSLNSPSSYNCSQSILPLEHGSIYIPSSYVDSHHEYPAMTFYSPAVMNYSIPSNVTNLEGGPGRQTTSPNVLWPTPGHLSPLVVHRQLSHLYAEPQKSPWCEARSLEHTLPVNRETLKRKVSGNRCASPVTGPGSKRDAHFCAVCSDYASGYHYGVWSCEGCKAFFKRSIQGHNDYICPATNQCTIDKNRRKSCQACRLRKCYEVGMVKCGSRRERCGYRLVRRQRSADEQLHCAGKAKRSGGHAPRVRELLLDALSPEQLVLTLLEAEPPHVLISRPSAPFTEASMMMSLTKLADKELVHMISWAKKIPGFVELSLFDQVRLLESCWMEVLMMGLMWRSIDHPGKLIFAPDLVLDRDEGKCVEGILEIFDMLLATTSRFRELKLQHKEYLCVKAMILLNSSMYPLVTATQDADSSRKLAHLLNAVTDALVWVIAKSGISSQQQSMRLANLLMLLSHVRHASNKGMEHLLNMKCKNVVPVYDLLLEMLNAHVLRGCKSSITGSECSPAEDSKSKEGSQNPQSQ
Description for Estrogen receptor beta: Binding affinity to ERbeta

For the compound `CC(C)(C)C(=O)Oc1ccc2c(c1)O[C@H](c1ccc(OCCN3CCCCC3)cc1)C1=C2COc2cc(OC(=O)C(C)(C)C)ccc21`, the results for the Activity in the data set filed under Rattus norvegicus [1] and in the data set filed under Rattus norvegicus [2] were 33% and “Dose-dependent effect”, respectively. Besides, the result with Rattus norvegicus [3], with Rattus norvegicus [6] and in the data set with Rattus norvegicus [9] was Active. Also, the IC50 was 510 nM against Estrogen receptor [4], over 10000 nM on Estrogen receptor [5], over 10000 nM on Estrogen receptor beta and 175 nM against Estrogen receptor [10]. In the data set with Rattus norvegicus [7], this compound displayed an inhibition in vivo at 0.42 mg/kg/day of 55%. In addition, the inhibition in vivo at […] in the data set with Rattus norvegicus [8] stood at 27%; in the data set with Rattus norvegicus [11], 75%. Also, in data set [12], the bioavailability worked out at 11%.
For `CN(C)CCOc1ccc(C2Oc3cc(O)ccc3C3=C2c2ccc(O)cc2OC3)cc1` (stereo not drawn), the IC50 came out at 220 nM against Estrogen receptor [4] and 180 nM on Estrogen receptor [10].
In the case of `Oc1ccc2c(c1)OC(c1ccc(OCCN3CCCCC3)cc1)C1=C2COc2cc(O)ccc21` (stereo not drawn), the IC50 against Estrogen receptor [4] was found to be 110 nM; against Estrogen receptor [10], 12 nM.
On Estrogen receptor [13], `CN(C)c1ccc(C2Oc3cc(O)ccc3C3=C2c2ccc(O)cc2OC3)cc1` (stereo not drawn) registered an EC50 of 71 nM. The same compound had an IC50 against Estrogen receptor [10] of 3800 nM.
For the compound `CC(C)(C)C(=O)Oc1ccc2c(c1)O[C@@H](c1ccc(OCCN3CCCCC3)cc1)C1=C2COc2cc(OC(=O)C(C)(C)C)ccc21`, the Activity in the data set filed under Rattus norvegicus [1] is 33%; in the data set filed under Rattus norvegicus [2] it was “Dose-dependent effect”. The IC50 at Estrogen receptor [4] was 670 nM; against Estrogen receptor [5], over 1000 nM; on Estrogen receptor beta, over 10000 nM; against Estrogen receptor [10], 99 nM. For the same compound, in the data set on Rattus norvegicus [7], the inhibition in vivo at 0.42 mg/kg/day came out at 88%. Moreover, the inhibition in vivo at […] in the data set on Rattus norvegicus [8] is 55%; in the data set on Rattus norvegicus [11] it was 100%. In addition, in the data set listed under Rattus norvegicus [14], the result was inactive. Besides, in [12], the bioavailability came out at 9%.
With `Oc1ccc2c(c1)O[C@H](c1ccc(OCCN3CCCCC3)cc1)C1=C2COc2cc(O)ccc21`, the IC50 at Estrogen receptor [4] was 599 nM; against Estrogen receptor [5], 51 nM; against Estrogen receptor beta it was 20.3 nM; against Estrogen receptor [10], 43.3 nM.
In the same order, the values of `Oc1ccc2c(c1)O[C@@H](c1ccc(OCCN3CCCCC3)cc1)C1=C2COc2cc(O)ccc21` are 416 nM, 0.61 nM, 1.3 nM and 17.1 nM.
